Data: patent US20070009495A1, “Method for treating or preventing systemic inflammation in formula-fed infants” (priority 2005, published 2007)

What was measured:
Assay type in all cases: in vivo, Sprague-Dawley infant rats
CINC-1 = CINC-1 peptide production by ELISA in rat pup tissues
Description: This example describes the materials and methods necessary to show the effect of LGG on formula-fed neonatal rat pups. In two separate experiments, ten Sprague-Dawley (Taconic, Germantown, N.Y.) infant rats were randomly assigned to two gastrostomy feeding groups with five rats per group. Gastrostomy feeding, using the rat infant “pup-in-the-cup” model, began on day 7 of life of the rat pups. The gastrostomy feeding tubes were constructed from 14-cm sections of polyethylene tubing that were inserted into the stomach of the pups. This is a commonly used model in studies of developmental nutrition when it is important to manipulate nutritional composition in the absence of maternal feedings. The gastrostomy placement was done under isoflurane anesthesia. Timer-controlled syringe pumps were connected to the feeding tubes and were set to feed the rats for the first 20 minutes of every hour at a weight-dependent flow rate. Five mother-reared rats of the same age were used as reference controls.
During a 2-day acclimation period, the gastrostomy-fed rat pups were fed with rat milk substitute (RMS). The protein component of the RMS was between 30 and 40 g/kg/day, which is similar to that of mother's milk and is required for normal growth. One of the RMS fed groups was also given a supplement of 1×10^8 cfu/L/kg/day LGG. The other group was fed RMS alone, without LGG supplementation. All of the gastrostomy-fed groups received the same quantity of fat and carbohydrates.
Lipopolysaccharide (LPS) from Escherichia coli 0127:B8 (LPS; Sigma, St. Louis, Mo.) was dissolved in water by vortexing at a concentration of 2 mg/ml. The gastrostomy-fed rats were given between 0.25 and 0.5 mg/kg/day of LPS via the gastrostomy tube starting 2 days after the initiation of artificial feeding. The pups were given LPS supplementation for 6 days. This dose was determined in pilot studies to result in occasional shivering, piloerection, and poor weight gain but was not associated with a significant increase in mortality over a 6-day period.
At the end of the 6-day treatment period, the rat pups were euthanized with an overdose of pentobarbital sodium. The small intestine was removed and separated into three parts: the ileum, jejunum, and duodenum, stored at −80° C. for enzyme assays and ELISA, or fixed in 10% neutral buffered formalin for intestinal morphology. Lung, liver and plasma were stored at −80° C. for enzyme assays and ELISA.
This example illustrates the effect of LGG on CINC-1. Small intestine and plasma CINC-1 levels were determined by TiterZyme Enzyme Immunometric Assay kits for rat growth-related oncogene/CINC-1 (Assay Designs, Ann Arbor, Mich.). Absorbance was determined at 450 nm, and concentration was calculated using the equation derived from a linear standard curve.
To further investigate the effects of the diets on CINC-1 peptide, CINC-1 production was evaluated by ELISA in the small intestine, liver, lung and plasma. In an initial experiment, LPS administration to rat pups caused an approximate 4-fold elevation in CINC-1 over non-LPS treated pups fed by gastrostomy (data not shown). […] In the liver and plasma, LGG supplementation reduced CINC-1 levels to a level which was very similar to that of mother's milk-fed rat pups.

ileum intestinal mucosa = assay: Intestinal morphology of ileum (H&E stain) in LPS-treated rat pups
Description: (§1) This example describes the materials and methods necessary to show the effect of LGG on formula-fed neonatal rat pups. In two separate experiments, ten Sprague-Dawley (Taconic, Germantown, N.Y.) infant rats were randomly assigned to two gastrostomy feeding groups with five rats per group. Gastrostomy feeding, using the rat infant “pup-in-the-cup” model, began on day 7 of life of the rat pups. The gastrostomy feeding tubes were constructed from 14-cm sections of polyethylene tubing that were inserted into the stomach of the pups. This is a commonly used model in studies of developmental nutrition when it is important to manipulate nutritional composition in the absence of maternal feedings. The gastrostomy placement was done under isoflurane anesthesia. […]
(§2) During a 2-day acclimation period, the gastrostomy-fed rat pups were fed with rat milk substitute (RMS). […] All of the gastrostomy-fed groups received the same quantity of fat and carbohydrates.
(§3) Lipopolysaccharide (LPS) from Escherichia coli 0127:B8 (LPS; Sigma, St. Louis, Mo.) was dissolved in water by vortexing at a concentration of 2 mg/ml. […] This dose was determined in pilot studies to result in occasional shivering, piloerection, and poor weight gain but was not associated with a significant increase in mortality over a 6-day period. […]

IL-18 = assay: Multiplex bead cytokine assay, IL-18
Description: (§4) This example describes the materials and methods necessary to show the effect of LGG on formula-fed neonatal rat pups. In two separate experiments, ten Sprague-Dawley (Taconic, Germantown, N.Y.) infant rats were randomly assigned to two gastrostomy feeding groups with five rats per group. Gastrostomy feeding, using the rat infant “pup-in-the-cup” model, began on day 7 of life of the rat pups. The gastrostomy feeding tubes were constructed from 14-cm sections of polyethylene tubing that were inserted into the stomach of the pups. This is a commonly used model in studies of developmental nutrition when it is important to manipulate nutritional composition in the absence of maternal feedings. […]
as §2, §3
(§5) To further investigate the effects of LPS and LGG on cytokines, 14 cytokines/chemokines from lung, liver, plasma and distal small intestine were analyzed. […]

MPO = MPO activity in distal small intestine and lung of rat pups
Description: as §4, §2, §3
This example illustrates the effect of LGG on MPO levels. […] MPO concentration of the supernatant was measured by the H2O2-dependent oxidation of tetramethylbenzidine. […]

GRO/KC (rat CINC-1) = assay: Multiplex bead cytokine assay, GRO/KC
Description: as §4, §2, §3, §5

[1] = test system: cytokine/chemokine levels; assay: Multiplex bead cytokine assay, liver cytokine/chemokine levels
Description: as §4, §2, §3, §5

TNF-α [2] = assay: TNF-α production by ELISA in plasma and lung of rat pups
Description: as §4, §2, §3
To further investigate the effects of the diets on TNF-α, TNF-α production was evaluated by ELISA in the plasma and lung. […]

IL-10 = assay: Multiplex bead cytokine assay, IL-10
Description: as §4, §2, §3, §5

IL-1β = assay: Multiplex bead cytokine assay, IL-1β
Description: as §4, §2, §3, §5

TNF-α [3] = assay: Multiplex bead cytokine assay, TNF-α
Description: as §4, §2, §3, §5

IL-6 = assay: Multiplex bead cytokine assay, IL-6
Description: as §4, §2, §3, §5

[4] = Growth (body weight) of gastrostomy-fed, LPS-treated rat pups; conditions: LGG 1×10^8 cfu/L/kg/day
Description: as §1, §2, §3

## Lipopolysaccharide (LPS) from Escherichia coli 0127:B8 [reference compound]
CINC-1; initial experiment, over non-LPS treated pups fed by gastrostomy (data not shown)
  elevation in CINC-1: approximately 4 fold
CINC-1; liver, LPS treated group that did not receive LGG
  liver CINC-1 concentration, fold as high: ~2 fold
CINC-1; lung, LPS treatment compared to mother-fed controls
  lung CINC-1 elevation: approximately 4 fold
CINC-1; plasma, LPS treated group that did not receive LGG
  plasma CINC-1 concentration, fold as high: ~2 fold

## Lactobacillus rhamnosus GG [LGG]
Ileum intestinal mucosa; LPS plus LGG group vs LPS group
  ileum histological features (metaplasia, lymphoplasmacytic infiltrate, thinning of muscularis mucosa, regenerative crypt changes): attenuated
Ileum intestinal mucosa; LPS/LGG group vs mother's milk-fed rat pups
  physical damage in the intestinal mucosa: reduced to a level similar to that of mother's milk-fed rat pups
IL-18; lung
  LPS induced elevation of IL-18, lung: significantly blunted
IL-18; plasma
  LPS induced elevation of IL-18, plasma: significantly blunted
MPO; distal small intestine
  LPS induced elevation of MPO, distal small intestine: significantly blunted
MPO; lung
  LPS induced elevation of MPO, lung: significantly blunted
GRO/KC (rat CINC-1); lung
  LPS induced elevation of GRO/KC (rat CINC-1), lung: significantly blunted
GRO/KC (rat CINC-1); plasma
  LPS induced elevation of GRO/KC (rat CINC-1), plasma: significantly blunted
[1]
  LPS induced increase of cytokine/chemokine levels in the liver: blunted
TNF-α [2]; lung
  LPS induced elevation of TNF-α, lung: significantly blunted
TNF-α [2]; plasma
  LPS induced elevation of TNF-α, plasma: significantly blunted
IL-10
  LPS induced elevation of IL-10, lung: significantly blunted
IL-1β; lung
  LPS induced elevation of IL-1β, lung: significantly blunted
IL-1β; plasma
  LPS induced elevation of IL-1β, plasma: significantly blunted
TNF-α [3]
  LPS induced elevation of TNF-α, lung: significantly blunted
IL-6; lung
  LPS induced elevation of IL-6, lung: significantly blunted
IL-6; plasma
  LPS induced elevation of IL-6, plasma: significantly blunted
CINC-1; liver, LPS/LGG vs LPS
  liver CINC-1 concentration: significantly attenuated
CINC-1; lung, LPS/LGG vs LPS
  lung CINC-1: significantly attenuated
CINC-1; plasma, LPS/LGG vs LPS
  plasma CINC-1 concentration: significantly attenuated
CINC-1; small intestine, LPS vs LPS/LGG vs mother-fed
  intestinal CINC-1 levels: did not differ significantly among the 3 groups
[4]
  weight gain: did not improve weight gain
